Source: US20090137577A1, “HETEROCYCLIC COMPOUNDS” (Pfizer Inc., priority 2007, published 2009)

biological target: T1, mGluR2 receptor (metabotropic glutamate receptor 2) (Homo sapiens, UniProt Q14416); assay: mGluR2 potentiator screen (FLIPR, EC10-EC20 glutamate challenge); type: cell-based; conditions: geometric mean; read-out: mGluR 2 EC50 (geometric mean);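 further: HEK cells stably expressing human mGluR2 with GL15 G protein, Fluo-4 calcium fluorescence read on FLIPR, compounds added before an EC10-EC20 glutamate challenge to detect potentiation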
T1 construct: expressed in transfected cells
T1 sequence (Q14416 19-872, species assumed): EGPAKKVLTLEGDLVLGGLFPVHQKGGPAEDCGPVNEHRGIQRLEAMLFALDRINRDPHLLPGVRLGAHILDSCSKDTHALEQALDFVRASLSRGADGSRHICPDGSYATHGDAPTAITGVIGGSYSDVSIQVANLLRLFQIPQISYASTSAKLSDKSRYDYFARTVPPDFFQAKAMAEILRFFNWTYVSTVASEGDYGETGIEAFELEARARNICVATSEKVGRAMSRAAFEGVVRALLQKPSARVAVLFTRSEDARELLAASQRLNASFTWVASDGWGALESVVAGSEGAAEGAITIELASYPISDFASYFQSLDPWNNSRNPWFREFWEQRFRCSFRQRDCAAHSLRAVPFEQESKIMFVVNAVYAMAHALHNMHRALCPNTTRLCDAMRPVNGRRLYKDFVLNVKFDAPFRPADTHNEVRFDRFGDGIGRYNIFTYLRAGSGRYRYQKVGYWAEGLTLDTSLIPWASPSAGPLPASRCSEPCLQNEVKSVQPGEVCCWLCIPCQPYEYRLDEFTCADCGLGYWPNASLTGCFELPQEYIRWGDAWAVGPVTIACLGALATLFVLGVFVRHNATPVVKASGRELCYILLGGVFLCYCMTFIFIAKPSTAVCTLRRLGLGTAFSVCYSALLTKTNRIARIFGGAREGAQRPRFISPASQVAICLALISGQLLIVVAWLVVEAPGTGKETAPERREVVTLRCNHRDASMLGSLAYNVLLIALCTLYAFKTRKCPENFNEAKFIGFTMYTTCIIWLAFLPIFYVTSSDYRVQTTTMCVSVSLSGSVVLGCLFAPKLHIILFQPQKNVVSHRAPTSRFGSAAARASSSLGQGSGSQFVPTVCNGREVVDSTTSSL

Point of comparison: `CC1CN(Cc2ccc(OCc3cccc(Cl)c3)cc2)C(=O)O1` (stereo not shown) [Example 108], EC50 91.2 nM. Against it:
- CC1CN(Cc2ccc(OCc3ccc(F)cc3)cc2)C(=O)O1 (stereo not shown) [Example 110] — 2.7-fold higher, 243 nM
- C[C@@H]1CN(Cc2ccc(-c3ccc(Cl)cc3Cl)nc2)C(=O)O1 [Example 269] — 5.7-fold higher, 518 nM
- CC1CN(Cc2ccc(O[C@H]3C[C@H]4CC[C@@H]3C4)cc2)C(=O)O1 (stereo partly shown) [Example 123] — 4-fold lower, 22.6 nM
- CC(C)Oc1ccc(-c2ccc(CN3C[C@@H](C)OC3=O)cc2)c(F)c1 [Example 281] — 11-fold lower, 8.14 nM
- CCC[C@H](C)Oc1ccc(CN2CC(C)OC2=O)cc1 (stereo partly shown) [Example 134] — 2.3-fold higher, 214 nM
- CC(Oc1ccc(CN2C(=O)OC[C@@H]3CCCC[C@@H]32)cc1)c1ccccc1 (stereo partly shown) [Example 35] — 9.7-fold higher, 884 nM
- CC1CN(Cc2ccc(OCCc3cccc(Cl)c3)cc2)C(=O)O1 (stereo not shown) [Example 99] — within 1.5-fold, 115 nM
- Cc1ccc(Cl)cc1-c1ccc(CN2C[C@@H](C)OC2=O)cc1 [Example 233] — 2-fold lower, 45.6 nM
- O=C1OC(c2ccccc2)CN1Cc1ccc(OCc2ccccc2)cc1 (stereo not shown) [Example 8] — 1.7-fold higher, 153 nM
- COc1ccc(-c2ccc(CN3C[C@@H](C)OC3=O)cn2)c(F)c1F [Example 262] — 4-fold higher, 363 nM
- CC(C)CN1CCN(Cc2ccc(OC(C)C3CCCCC3)cc2)C(=O)C1 (stereo not shown) [Example 200] — 2.1-fold higher, 191 nM
- C[C@@H]1CN(Cc2ccc(-c3ccc4c(c3)CCO4)nc2)C(=O)O1 [Example 264] — 6.2-fold higher, 561 nM
- CC1CN(Cc2ccc(OCc3ccc(F)c(F)c3)cc2)C(=O)O1 (stereo not shown) [Example 137] — 3.4-fold higher, 310 nM
- C[C@@H]1CN(Cc2ccc(O[C@@H](C)c3ccccc3)cc2)C(=O)O1 [Example 69] — 1.9-fold higher, 173 nM
- CC(C)Oc1ccc(-c2ccc(CN3C[C@@H](C)OC3=O)cc2)cc1 [Example 57, (5R)-3-[(4′-isopropoxybiphenyl-4-yl)methyl]-5-methyl-1,3-oxazolidin-2-one] — lower, < 40.8 nM
- CC1CN(Cc2ccc(OCCCn3ccc4ccccc43)cc2)C(=O)O1 (stereo not shown) [Example 149] — 2.5-fold lower, 35.8 nM
- C[C@@H]1CN(Cc2ccc(-c3c(F)cccc3F)cc2)C(=O)O1 [Example 247] — 2.3-fold higher, 211 nM
- C[C@@H]1CN(Cc2ccc(OCCCOc3ccc(F)cc3)nc2)C(=O)O1 [Example 229, (5R)-3-({6-[3-(4-fluorophenoxy)propoxy]pyridin-3-yl}methyl)-5-methyl-1,3-oxazolidin-2-one] — 8.3-fold higher, 757 nM
- Cc1cc(CN2CC(c3cccnc3)OC2=O)ccc1OCC1CCCCC1 (stereo not shown) [Example 250, 3-[4-(Cyclohexylmethoxy)-3-methylbenzyl]-5-pyridin-3-yl-1,3-oxazolidin-2-one] — 21-fold higher, 1870 nM
- C[C@H]1[C@@H](c2ccccc2)OC(=O)N1Cc1ccc(OCc2cccnc2)cc1 [Example 32] — 2.7-fold higher, 245 nM
- Cc1ccc(C)n1-c1ccc(CN2C[C@@H](C)OC2=O)cc1 [Example 178, (5R)-3-[4-(2,5-dimethyl-1H-pyrrol-1-yl)benzyl]-5-methyl-1,3-oxazolidin-2-one] — 5.7-fold higher, 523 nM
- Cc1cc(CN2C[C@@H](C)OC2=O)ccc1-c1ccc(F)cc1F [Example 299, (5R)-3-[(2′,4′-Difluoro-2-methylbiphenyl-4-yl)methyl]-5-methyl-1,3-oxazolidin-2-one] — 1.8-fold higher, 167 nM
- Cc1ccccc1-c1ccc(CN2C[C@@H](C)OC2=O)cc1 [Example 180] — 1.8-fold lower, 52 nM
- CC1CN(Cc2ccc(OCc3ccc(Cl)cc3F)cc2)C(=O)O1 (stereo not shown) [Example 88] — within 1.5-fold, 66.6 nM
- CC(C)Oc1ccc(-c2ccc(CN3C[C@@H](C)OC3=O)cn2)c(F)c1 [Example 279] — 1.7-fold higher, 159 nM
- C[C@@H]1CN(Cc2ccc(-c3ccc(C(F)(F)F)cc3F)cc2)C(=O)O1 [Example 234] — lower, < 34.5 nM
- C[C@@H]1CN(Cc2ccc(-c3ccc(N4CCOCC4)nc3)cc2)C(=O)O1 [Example 154] — 14-fold higher, 1240 nM
- CC1CN(Cc2ccc(OCCCc3cccnc3)cc2)C(=O)O1 (stereo not shown) [Example 120] — 13-fold higher, 1150 nM
- COc1cccc(COc2ccc(CN3CC(C)OC3=O)cc2)c1 (stereo not shown) [Example 103] — 2.4-fold higher, 221 nM
- CCOC(=O)c1ccccc1-c1ccc(CN2C[C@@H](C)OC2=O)cc1 [Example 197] — 20-fold higher, 1830 nM
- COc1ccc(-c2ccc(CN3C[C@@H](C)OC3=O)cc2F)cn1 [Example 295] — 8.8-fold higher, 804 nM
- O=C1OCCN1Cc1ccc(OCCC2CCCCC2)cc1 [Example 11] — 7.7-fold higher, 699 nM
- CC(Oc1ccc(CN2CC(c3cccnc3)OC2=O)cc1)C1CCCCC1 (stereo not shown) [Example 208] — 2.2-fold lower, 41.6 nM
- CC(Oc1ccc(CN2CCOC2=O)cc1)C1CCCCC1 (stereo not shown) [Example 42] — 7.4-fold higher, 677 nM
- CC1CN(Cc2ccc(OC(C)C3CC3)cc2)C(=O)O1 (stereo not shown) [Example 135] — 21-fold higher, 1890 nM
- CC1(C)COC(=O)N(Cc2ccc(OCc3ccccc3)cc2)C1 [Example 21] — 9-fold higher, 819 nM
- COc1cc(F)ccc1COc1ccc(CN2CC(C)OC2=O)cc1 (stereo not shown) [Example 147] — within 1.5-fold, 118 nM
- Cc1ccccc1COc1ccc(CN2C[C@@H](C)OC2=O)cc1 [Example 186] — within 1.5-fold, 89 nM
- C[C@@H]1CN(Cc2ccc(-c3cccc(Cl)c3F)c(F)c2)C(=O)O1 [Example 291, (5R)-3-[(3′-chloro-2,2′-difluorobiphenyl-4-yl)methyl]-5-methyl-1,3-oxazolidin-2-one] — 1.5-fold lower, 59.6 nM
- C[C@@H]1CN(Cc2ccc(-c3nc(C(C)(C)C)cs3)cc2)C(=O)O1 [Example 183] — 1.6-fold higher, 150 nM
- CC1CN(Cc2ccc(OCCOc3ccccc3)cc2)C(=O)O1 (stereo not shown) [Example 121] — 4.8-fold higher, 434 nM
- CCc1ccccc1-c1ccc(CN2C[C@@H](C)OC2=O)cc1 [Example 167] — lower, < 13.4 nM
- COc1ccc(F)c(-c2ccc(CN3C[C@@H](C)OC3=O)cc2)c1 [Example 240] — within 1.5-fold, 120 nM
- C[C@@H]1CN(Cc2ccc(-c3cc4ccccc4o3)cc2)C(=O)O1 [Example 157] — lower, < 32.5 nM
- CCOc1ccc(COc2ccc(CN3CC(C)OC3=O)cc2)cc1 (stereo not shown) [Example 119] — 1.8-fold higher, 164 nM
- C[C@@H]1CN(Cc2ccc(-c3ccc(N(C)C)nc3)cc2)C(=O)O1 [Example 155] — 5.4-fold higher, 489 nM
- CC1CN(Cc2ccc(OCC3CCCC3)cc2)C(=O)O1 (stereo not shown) [Example 90] — 3.6-fold lower, 25.5 nM
- C[C@@H]1CN(Cc2ccc(OCc3ccc(C(F)(F)F)cc3F)c(F)c2)C(=O)O1 [Example 228, (5R)-3-(3-fluoro-4-{[2-fluoro-4-(trifluoromethyl)benzyl]oxy}benzyl)-5-methyl-1,3-oxazolidin-2-one] — 9.5-fold higher, 870 nM
- Cc1cc(C)n(-c2cccc(-c3ccc(CN4C[C@@H](C)OC4=O)cc3)c2)n1 [Example 199] — 8.8-fold higher, 804 nM
- C[C@@H]1CN(Cc2ccc(-c3cccc(Cl)c3F)cc2)C(=O)O1 [Example 235] — lower, < 23.5 nM
- O=C1OCCCN1Cc1ccc(OCCC2CCCCC2)cc1 [Example 34] — 3.1-fold higher, 282 nM
- CC1CN(Cc2ccc(OCC3(C)CC3)cc2)C(=O)O1 (stereo not shown) [Example 95] — 7.9-fold higher, 723 nM
- C[C@@H]1CN(Cc2ccc(/C=C/c3ccccc3)cc2)C(=O)O1 [Example 317, (5R)-5-methyl-3-{4-[(E)-2-phenylvinyl]benzyl}-1,3-oxazolidin-2-one] — 2.5-fold lower, 36.4 nM
- Cc1ccc(F)cc1-c1ccc(CN2C[C@@H](C)OC2=O)cc1 [Example 248] — 1.7-fold lower, 53.7 nM
- COc1ccc(-c2ccc(CN3C[C@@H](C)OC3=O)cc2)c(F)c1F [Example 242] — lower, < 17.2 nM
- Cc1ccc(CN2CCN(Cc3ccc(OC(C)C4CCCCC4)cc3)C(=O)C2)cc1 (stereo not shown) [Example 216] — 5.2-fold higher, 471 nM
- C[C@@H]1CN(Cc2ccc(-c3cccc(F)c3Cl)cc2F)C(=O)O1 [Example 251] — 1.6-fold lower, 55.9 nM
- CN(C)CC1CN(Cc2ccc(-c3ccc(F)cc3F)cc2)C(=O)O1 (stereo not shown) [Example 307, 3-[(2′,4′-difluorobiphenyl-4-yl)methyl]-5-[(dimethylamino)methyl]-1,3-oxazolidin-2-one] — 15-fold higher, 1360 nM
- C[C@H]1[C@@H](c2ccccc2)OC(=O)N1Cc1ccc(OCC2CCCCC2)cc1 [Example 27] — 12-fold higher, 1140 nM
- C[C@@H]1CN(Cc2ccc(-c3ccc4c(c3)OCCO4)cc2)C(=O)O1 [Example 198] — 2.2-fold lower, 42.2 nM
- O=C1OC[C@@H]2CCCC[C@@H]2N1Cc1ccc(OCc2ccccc2)cc1 [Example 4] — 7.1-fold higher, 647 nM
- O=C1OCCCN1Cc1ccc(OCC2CCC2)cc1 [Example 28] — 14-fold higher, 1240 nM
- CC1(C)COC(=O)N(Cc2ccc(OCC3CCCCC3)cc2)C1 [Example 17] — 7.6-fold higher, 696 nM
- CC1CN(Cc2ccc(OCCCc3ccncc3)cc2)C(=O)O1 (stereo not shown) [Example 116] — 10-fold higher, 934 nM
- COc1ccc(F)c(COc2ccc(CN3CC(C)OC3=O)cc2)c1 (stereo not shown) [Example 151] — within 1.5-fold, 92.1 nM
- C[C@@H]1CN(Cc2ccc(-c3cccc(C#N)c3)cc2)C(=O)O1 [Example 85] — 5.5-fold higher, 498 nM
- C[C@@H]1CN(Cc2ccc(OCCC3CCCCC3)c(F)c2)C(=O)O1 [Example 241, (5R)-3-[4-(2-cyclohexylethoxy)-3-fluorobenzyl]-5-methyl-1,3-oxazolidin-2-one] — 4.6-fold higher, 418 nM
- CC(=O)c1ccccc1-c1ccc(CN2C[C@@H](C)OC2=O)cc1 [Example 175] — 8.8-fold higher, 805 nM
- C[C@@H]1CN(Cc2ccc(-c3ccc(C(F)(F)F)cc3Cl)cc2)C(=O)O1 [Example 272] — 4.5-fold lower, 20.1 nM
- CC(C)COc1ccc(CN2CC(c3ccccc3)OC2=O)cc1 (stereo not shown) [Example 6] — 1.7-fold higher, 151 nM
- CC(C)Oc1ccc(-c2ccc(CN3C[C@H](C)OC3=O)cc2)cc1 [Example 58, (5S)-3-[(4′-isopropoxybiphenyl-4-yl)methyl]-5-methyl-1,3-oxazolidin-2-one] — within 1.5-fold, 105 nM
- C[C@@H]1CN(Cc2ccc(-c3cccc(F)c3F)cc2)C(=O)O1 [Example 244] — within 1.5-fold, 97.2 nM
- CC(C)CCN1CCN(Cc2ccc(OC(C)C3CCCCC3)cc2)C(=O)C1 (stereo not shown) [Example 220] — 8.8-fold higher, 801 nM
- Cc1onc(-c2ccccc2)c1COc1ccc(CN2CC(C)OC2=O)cc1 (stereo not shown) [Example 132] — 18-fold higher, 1670 nM
- CC(Oc1ccc(CN2C(=O)O[C@H](c3ccccc3)[C@@H]2C)cc1)c1ccccc1 (stereo partly shown) [Example 50] — 2.9-fold higher, 263 nM
- Cc1ccc(F)cc1COc1ccc(CN2C[C@@H](C)OC2=O)cc1 [Example 205] — within 1.5-fold, 68 nM
- CC1CN(Cc2ccc(OCCc3ccccc3)cc2)C(=O)O1 (stereo not shown) [Example 102] — 3.1-fold higher, 282 nM
- C[C@@H]1CN(Cc2ccc3c(c2)CCC(C)(C)O3)C(=O)O1 [Example 87, (5R)-3-[(2,2-Dimethyl-3,4-dihydro-2H-chromen-6-yl)methyl]-5-methyl-1,3-oxazolidin-2-one] — 15-fold higher, 1380 nM
